Three molecules from US8247170B2, “Detection of penicillin tolerance in Group B Streptococcus: single nucleotide polymorphisms in penicillin binding protein 4” (priority 2008, dated 2012) can be followed below.

In this assay the test system is GBS laboratory strains. Kind of assay: MBC90:MIC90 ratio method of determining antibiotic tolerance. It is filed as cell-based, Group B Streptococcus. To be noted: for MBC / MIC / MIC90: Streptococcus; for MBC: 24 h, ≧90% non-viable cells, plate counts after 24 h antibiotic; for MIC: ≧90% growth-inhibited, OD600; for MIC90: for GBS, as stated under culture conditions. How it is done:
The inventors ascertained the incidence of antibiotic tolerance in GBS clinical isolates collected from cervicovaginal-rectal swabs, by investigating cell wall inhibitors used to eliminate GBS colonization in pregnant women before delivery as stated by the CDC guidelines. A ratio of the minimum bactericidal concentration (MBC) over minimum inhibitory concentration (MIC) after 24 h of antibiotic incubation or by determining quantitative kill curves has been used to define antibiotic tolerance previously.
The MBC:MIC ratio was calculated for laboratory strains using three β-lactam antibiotics (Penicillin G, Ampicillin, and Cefazolin) and a glycopeptide antibiotic (Vancomycin) (Table 1). Early-log phase cultures of GBS were treated with the individual antibiotics at a concentration of 0.25 to 512×MIC90. The optical density (OD600) of antibiotic treated cultures was used to determine the MIC90 after 24 h and a cell count was used to determine their MBC90. Susceptible, tolerant and intermediate strains were defined by their MBC:MIC ratio of ≦2:1, ≧32:1 and 4:1-16:1 respectively. […] The ratios characterized GBS strains A909 and 2603V/R as Susceptible, O90R as Tolerant, and NEM316 as Intermediate to Penicillin, Ampicillin, and Cefazolin. All four strains were susceptible to Vancomycin.
(I) Bacterial Strains and Culture Conditions. GBS strains A909 (serotype IA), 515 (serotype IA), NEM316 (serotype III), COHI (serotype III), 2603V/R (serotype V) and O90R (non-typable) were used in this study. E. coli Top10 cells were used for the recombination experiments. GBS was cultured in Todd Hewitt broth (THB) or Tryptic Soy 5% sheep blood (TS) media and E. coli in Luria-broth (LB) medium or agar. Antibiotics were used at the following concentrations: for GBS—penicillin G (MIC90 0.06 μg ml^−1), ampicillin (MIC90 0.12 μg ml^−1), vancomycin (MIC90 2 μg ml^−1), cefazolin (MIC90 1 μg ml^−1) and chloramphenicol (5 μg ml^−1); for E. coli—ampicillin (50 μg ml^−1) and chloramphenicol (5 μg ml^−1). Both GBS and E. coli cultures were grown at 37° C. (II) Tolerance Using the MBC:MIC Ratio Method. Three GBS laboratory strains (i.e., A909, NEM316, and O90R) were cultured overnight for 18 h at 37° C. in THB. Subcultures in THB were subsequently grown to exponential phase (OD600˜0.3; i.e. 5×10^5 cfu/ml) at 37° C. Cell cultures were then exposed to different concentrations of antibiotics (Penicillin G, Ampicillin, Cefozolin or Vancomycin). […] Cell cultures were dispersed every 18 h before OD600 was measured to determine the lowest concentration of antibiotic with 90% growth inhibition (MIC90). Antibiotic treated cells (8 μl) from each well were re-suspended into PBS (100 μl) and plated (54 μl) on TS agar plates and allowed to grow for an additional 24 h at 37° C. Cell count was performed to determine the lowest concentration of antibiotic with 90% killing of original inoculums (MBC90). (III) Penicillin Killing and Regrowth Tolerance Assay by Microbroth Dilution. Three GBS laboratory strains (i.e., A909, NEM316, and O90R) were cultured overnight for 18 h at 37° C. in THB. Subcultures in THB were subsequently grown to exponential phase (OD600˜0.3) at 37° C. Cell cultures were then exposed to different concentrations of Penicillin G (Sigma, St. Louis, Mo.). […] Cell cultures were dispersed. A 1:20 dilution of cells was re-plated into new wells containing fresh THB with 500 U Penase (to degrade residual penicillin). Cell cultures were allowed to re-grow for an additional 24 h at 37° C. before the OD600 was measured. (IV) Measuring Cell Viability by Determining ATP Concentration. GBS strains were cultured for 18 h at 37° C. in THB. These cells were inoculated into fresh THB and subsequently allowed to grow to exponential phase (OD600 0.25-0.3) at 37° C. One ml of each culture was centrifuged at 5,000×g for 4 min. The cell pellet was re-suspended in ATP-free water. […]

Turning to `CC1(C)S[C@@H]2[C@H](NC(=O)[C@H](N)c3ccccc3)C(=O)N2[C@H]1C(=O)O` [Ampicillin], the MIC90 was 0.12 µg/mL. In addition, where the note is “GBS strain 2603V/R”, the “Ratio (MBC90:MIC90)” value is given as 1, the MBC turned out to be 0.48 µg/mL and the MIC came out at 0.48 µg/mL. Under “GBS strain A909”, the “Ratio (MBC90:MIC90)” value turned out to be 1, the MBC amounted to 0.48 µg/mL and the MIC came to 0.48 µg/mL. Besides, under “GBS strain NEM316”, the “Ratio (MBC90:MIC90)” value is recorded as 4, the MBC stood at 1.92 µg/mL and the MIC is 0.48 µg/mL. For the same molecule, under “GBS strain O90R”, the MBC was 15.4 µg/mL and the MIC came out at 0.96 µg/mL.

`Cc1nnc(SCC2=C(C(=O)O)N3C(=O)[C@@H](NC(=O)Cn4cnnn4)[C@H]3SC2)s1` [Cefazolin]: the MIC90 turned out to be 1 µg/mL. Further, under “GBS strain 2603V/R”, the “Ratio (MBC90:MIC90)” value was 2, the MBC worked out at 0.39 µg/mL and the MIC stood at 0.19 µg/mL. Under “GBS strain A909”, the “Ratio (MBC90:MIC90)” value came to 1, the MBC amounted to 0.19 µg/mL and the MIC came to 0.19 µg/mL. Further, for the setting “GBS strain NEM316”, the “Ratio (MBC90:MIC90)” value came to 16, the MBC was 3.12 µg/mL and the MIC worked out at 0.19 µg/mL. For the same molecule, where the note is “GBS strain O90R”, the “Ratio (MBC90:MIC90)” value is 32, the MBC was 12.5 µg/mL and the MIC turned out to be 0.39 µg/mL.

On to `CN[C@H](CC(C)C)C(=O)N[C@H]1C(=O)N[C@@H](CC(N)=O)C(=O)N[C@H]2C(=O)N[C@H]3C(=O)N[C@H](C(=O)N[C@H](C(=O)O)c4cc(O)cc(O)c4-c4cc3ccc4O)[C@H](O)c3ccc(c(Cl)c3)Oc3cc2cc(c3O[C@@H]2O[C@H](CO)[C@@H](O)[C@H](O)[C@H]2O[C@H]2C[C@](C)(N)[C@H](O)[C@H](C)O2)Oc2ccc(cc2Cl)[C@H]1O` [Vancomycin], for which the MIC90 stood at 2 µg/mL. For the setting “GBS strain 2603V/R”, the “Ratio (MBC90:MIC90)” value was found to be 1, the minimum bactericidal concentration (MBC) amounted to 4 µg/mL and the MIC was determined as 4 µg/mL. Moreover, where the note is “GBS strain A909”, the “Ratio (MBC90:MIC90)” value worked out at 1, the MBC is 4 µg/mL and the MIC came to 4 µg/mL. Further, where the note is “GBS strain NEM316”, the “Ratio (MBC90:MIC90)” value is recorded as 1, the MBC was found to be 4 µg/mL and the MIC was determined as 4 µg/mL. Further, for the setting “GBS strain O90R”, the “Ratio (MBC90:MIC90)” value is on record as 1, the MBC worked out at 4 µg/mL and the minimal inhibitory concentration (MIC) came out at 4 µg/mL.

As a reminder, the MBC is the smallest concentration meeting the test's criterion for killing. The MIC is the least concentration at which growth counts as inhibited. A word on the MIC90: it is an inhibitory concentration at the 90% level, which refers to growth in some studies and to a panel of isolates in others.
